# Non-standard residues stand in square brackets, D forms with d. Residues, ends and D or L forms follow the SMILES beside them.
# Tested on: GH Release
# Assay: In vivo GH release in pentobarbital anesthetized rats (serum GH by RIA)
# Set-up: species or system Sprague-Pawley rats
# Settings: sacrificed 10 minutes after injection, mean ± SEM, six rats
# Description: Immature female Sprague-Pawley rats were obtained from the Charles River Laboratories (Wilmington, MA). After arrival they were housed at 25° C with a 14:10 hr light:dark cycle. Water and Purina rat chow were available ad libitum. Pups were kept with their mothers until 21 days of age.
# Normal saline with 0.1% gelatin was the vehicle for intravenous (i.v.) injections of the peptides. The anesthetized rats, weighing 55-65 grams, were injected i.v. with the quantity of growth hormone releasing compounds indicated in Table 3. Injection was made as a 0.1 mL solution into the jugular vein.
# All animals were sacrificed by guillotine 10 minutes after the final test injection (see Table 3). Trunk blood for the determination of blood GH levels was collected following decapitation. After allowing the blood to clot, it was centrifuged and the serum was separated from the clot. Serum was kept frozen until the day of sampling for radioimmunoassay (RIA) determination of growth hormone levels according to the following procedure, as developed by the National Institute of Arthritis, Diabetes and Digestive and Kidney Diseases (NIADDK).
# Reagents are generally added to the RIA analysis tubes at a single sitting, at refrigerator temperature (about 4°C) in the following sequence: • (a) buffer, • (b) "cold" (i.e., non-radioactive) standard or unknown serum sample to be analyzed, • (c) radio-iodinated growth hormone antigen, and • (d) growth hormone antiserum. Reagent addition is generally carried out so that there is achieved a final RIA tube dilution of about 1:30,000 (antiserum to total liquid volume; vol:vol).
# The mixed reagents are then typically incubated at room temperature (about 25°C) for about 24 hours prior to addition of a second antibody (e.g., goat or rabbit anti-monkey gamma globulin serum) which binds to and causes precipitation of the complexed growth hormone antiserum. Precipitated contents of the RIA tubes are then analyzed for the number of counts in a specified period of time in a gamma scintillation counter. A standard curve is prepared by plotting number of radioactive counts versus growth hormone (GH) level. GH levels of unknowns are then determined by reference to the standard curve.
# Serum GH was measured by RIA with reagents provided by the National Hormone and Pituitary Program.
# Serum levels in Table 3 are recorded in ng/mL in terms of the rat GH standard of 0.61 International Units/mg (IU/mg). Data is recorded as the mean +/-standard error of the mean (SEM). Statistical analysis was performed with Student's t-test. In Table 3 the results shown are the average of studies with six rats.
# [1] = Total Dose 0.3 µg i.v., 26 day old female rats, study with Control GH 142±43
# [2] = Total Dose 0.3 µg i.v., 26 day old female rats, study with Control GH 208±47
# [3] = Total Dose 1.0 µg i.v., 26 day old female rats, study with Control GH 142±43
# [4] = Total Dose 1.0 µg i.v., 26 day old female rats, study with Control GH 208±47
# [5] = Total Dose 1.0 µg i.v., 29 day old female rats, study with Control GH 108±17
# [6] = Total Dose 3.0 µg i.v., 26 day old female rats, study with Control GH 142±43
# [7] = Total Dose 3.0 µg i.v., 26 day old female rats, study with Control GH 208±47
# [8] = Total Dose 3.0 µg i.v., 29 day old female rats, study with Control GH 108±17
SMILES,GH Released by Compound in Column A [1],GH Released by Compound in Column A [2],GH Released by Compound in Column A [3],GH Released by Compound in Column A [4],GH Released by Compound in Column A [5],GH Released by Compound in Column A [6],GH Released by Compound in Column A [7],GH Released by Compound in Column A [8],"GH Released by Compound in Column A (Total Dose 10.0 µg i.v., 26 day old female rats, study with Control GH 142±43)","GH Released by Compound in Column A (Total Dose 10.0 µg i.v., 29 day old female rats, study with Control GH 108±17)","GH Released by Compound in Column A (Total Dose 30.0 µg i.v., 26 day old female rats, study with Control GH 142±43)","GH Released by Compound in Column A (Total Dose 0.3 µg i.v., 26 day old female rats, study with Control GH 151±16)","GH Released by Compound in Column A (Total Dose 1.0 µg i.v., 26 day old female rats, study with Control GH 151±16)","GH Released by Compound in Column A (Total Dose 3.0 µg i.v., 26 day old female rats, study with Control GH 111±25)","GH Released by Compound in Column A (Total Dose 3.0 µg i.v., 26 day old female rats, study with Control GH 151±16)","GH Released by Compound in Column A (Total Dose 0.3 µg i.v., 29 day old female rats, study with Control GH 108±17)"
C[C@H](N)C(=O)N[C@H](Cc1c[nH]c2ccccc12)C(=O)N[C@@H](C)C(=O)N[C@@H](Cc1c[nH]c2ccccc12)C(=O)N[C@H](Cc1ccccc1)C(=O)N[C@@H](CCCCN)C(N)=O [Ala-DTrp-Ala-Trp-DPhe-Lys-NH₂] (H-A[dW]AW[dF]K-NH2),303 ± 41 ng/mL,265 ± 96 ng/mL,729 ± 115 ng/mL,754 ± 164 ng/mL,745 ± 68 ng/mL,1164 ± 215 ng/mL,1449 ± 238 ng/mL,1673 ± 352 ng/mL,2353 ± 149 ng/mL,2388 ± 269 ng/mL,2484 ± 110 ng/mL,–,–,–,–,–
C[C@H](NC(=O)[C@@H](N)Cc1c[nH]cn1)C(=O)N[C@H](Cc1c[nH]c2ccccc12)C(=O)N[C@@H](C)C(=O)N[C@@H](Cc1c[nH]c2ccccc12)C(=O)N[C@H](Cc1ccccc1)C(=O)N[C@@H](CCCCN)C(N)=O [His-Ala-DTrp-Ala-Trp-DPhe-Lys-NH₂] (H-HA[dW]AW[dF]K-NH2),–,–,–,–,–,–,–,–,–,–,–,261 ± 32 ng/mL,830 ± 103 ng/mL,2588 ± 341 ng/mL,2365 ± 478 ng/mL,–
C[C@H](NC(=O)[C@@H](Cc1c[nH]c2ccccc12)NC(=O)[C@@H](N)Cc1c[nH]cn1)C(=O)N[C@@H](Cc1c[nH]c2ccccc12)C(=O)N[C@H](Cc1ccccc1)C(=O)N[C@@H](CCCCN)C(N)=O [His-DTrp-Ala-Trp-DPhe-Lys-NH₂] (H-H[dW]AW[dF]K-NH2),533 ± 77 ng/mL,660 ± 128 ng/mL,1656 ± 213 ng/mL,1669 ± 257 ng/mL,2614 ± 349 ng/mL,2653 ± 378 ng/mL,3078 ± 629 ng/mL,3215 ± 547 ng/mL,–,–,–,–,–,–,–,764 ± 62 ng/mL

# From patent publication EP0417165B1, “POLYPEPTIDE COMPOUNDS HAVING GROWTH HORMONE RELEASING ACTIVITY” (POLYGEN HOLDING CORPORATION, priority 1988, dated 1994)
